According to patent publication US10443078B2, “Pichia kudriavzevii NG7 microorganism and uses thereof” (Korea Research Institute of Bioscience and Biotechnology, priority 2014, dated 2019):
Numbered stars: 1 amine (or outer) side, 2 acyl side, 3 side chain; on linkers, the order of the positions; unused ones are H or OH. Square brackets hold non-standard residues; d marks the D form. Peptide text beside a SMILES is read from it. X1 = CC[C@@H](C)[C@@H](O[*:1])C(=O)[*:2]; NMeVal(β-OH) = CN[C@H](C(=O)O)C(C)(C)O; NMeF = CN[C@@H](Cc1ccccc1)C(=O)O; aIle = CC[C@@H](C)[C@H](N)C(=O)O; NMeV = CN[C@H](C(=O)O)C(C)C

What was measured:
Assay in all cases: Antibiotic resistance of isolated microorganisms on YPD solid medium
Conditions in all cases: zeocin, G418, nourseothricin, hygromycin 100 μg/mL, cycloheximide 1 μg/mL, aureobasidin A 0.1 μg/mL, 30° C.
NG1 microorganism = type: cell-based, Issatchenkia occidentalis
Description: (§1) The antibiotic resistance of the selected three different kinds of microorganisms to various antibiotics was examined. The antibiotics used were zeocin (100 μg/mL), G418 (100 μg/mL), cycloheximide (1 μg/mL), aureobasidin A (0.1 μg/mL), nourseothricin (100 μg/mL), and hygromycin (100 μg/mL). Each of the cell cultures of the isolated microorganisms was dotted on YPD solid medium (yeast extract (1%), peptone (2%), glucose (2%), and agar (2%)) and cultured at 30° C.

2-2 microorganism = type: cell-based, Pichia kudriavzevii
Description: as §1

NG7 microorganism = type: cell-based, Pichia kudriavzevii
Description: as §1

Compound: CN[C@@H]1[C@@H](O)[C@@H](O[C@@H]2[C@@H](O)[C@H](O[C@H]3O[C@H]([C@@H](C)O)[C@@H](O)[C@H](O)[C@H]3N)[C@@H](N)C[C@H]2N)OC[C@]1(C)O [G418]
- Resistance of microorganism NG1 to antibiotic (NG1 microorganism): resistance and +
- Resistance of microorganism 2-2 to antibiotic (2-2 microorganism): resistance and +
- Resistance of microorganism NG7 to antibiotic (NG7 microorganism): resistance and +

Compound: Cc1c(N)nc([C@H](CC(N)=O)NC[C@H](N)C(N)=O)nc1C(=O)N[C@H](C(=O)N[C@H](C)[C@@H](O)[C@H](C)C(=O)N[C@H](C(=O)NCCC1=N[C@@H](c2nc(C(=O)NCCCCN=C(N)N)cs2)CS1)[C@@H](C)O)[C@@H](O[C@@H]1O[C@@H](CO)[C@@H](O)[C@H](O)[C@@H]1O[C@H]1O[C@H](CO)[C@@H](O)[C@H](OC(N)=O)[C@@H]1O)c1cnc[nH]1 [Zeocin, zeocin]
- Resistance of microorganism NG1 to antibiotic (NG1 microorganism): +
- Resistance of microorganism NG1 to antibiotic (NG1 microorganism; listed as zeocin): resistance
- Resistance of microorganism 2-2 to antibiotic (2-2 microorganism): +
- Resistance of microorganism 2-2 to antibiotic (2-2 microorganism; listed as zeocin): resistance
- Resistance of microorganism NG7 to antibiotic (NG7 microorganism): +
- Resistance of microorganism NG7 to antibiotic (NG7 microorganism; listed as zeocin): resistance

Compound: C[C@@H]1C[C@@H]([C@H](O)CC2CC(=O)NC(=O)C2)C(=O)[C@@H](C)C1 [Cycloheximide, cycloheximide]
- Resistance of microorganism NG1 to antibiotic (NG1 microorganism): +
- Resistance of microorganism NG1 to antibiotic (NG1 microorganism; listed as cycloheximide): resistance
- Resistance of microorganism 2-2 to antibiotic (2-2 microorganism): +
- Resistance of microorganism 2-2 to antibiotic (2-2 microorganism; listed as cycloheximide): resistance
- Resistance of microorganism NG7 to antibiotic (NG7 microorganism): +
- Resistance of microorganism NG7 to antibiotic (NG7 microorganism; listed as cycloheximide): resistance

Compound: CC[C@@H](C)[C@@H]1NC(=O)[C@@H]2CCCN2C(=O)[C@H](Cc2ccccc2)N(C)C(=O)[C@H](Cc2ccccc2)NC(=O)[C@H](C(C)C)N(C)C(=O)[C@@H]([C@H](C)CC)OC(=O)[C@H](C(C)(C)O)N(C)C(=O)[C@H](CC(C)C)NC(=O)[C@H](C(C)C)N(C)C1=O [Aureobasidin A, aureobasidin A] (cyclo(F[NMeF]P[aIle][NMeV]L[NMeVal(β-OH)][X1][NMeV]))
- Resistance of microorganism NG1 to antibiotic (NG1 microorganism): −
- Resistance of microorganism NG1 to antibiotic (NG1 microorganism; listed as aureobasidin A): no resistance
- Resistance of microorganism 2-2 to antibiotic (2-2 microorganism): −
- Resistance of microorganism 2-2 to antibiotic (2-2 microorganism; listed as aureobasidin A): no resistance
- Resistance of microorganism NG7 to antibiotic (NG7 microorganism): −
- Resistance of microorganism NG7 to antibiotic (NG7 microorganism; listed as aureobasidin A): no resistance

Compound: nourseothricin
- Resistance of microorganism NG1 to antibiotic (NG1 microorganism): −
- Resistance of microorganism NG1 to antibiotic (NG1 microorganism; listed as nourseothricin): no resistance
- Resistance of microorganism 2-2 to antibiotic (2-2 microorganism): −
- Resistance of microorganism 2-2 to antibiotic (2-2 microorganism; listed as nourseothricin): no resistance
- Resistance of microorganism NG7 to antibiotic (NG7 microorganism): −
- Resistance of microorganism NG7 to antibiotic (NG7 microorganism; listed as nourseothricin): no resistance
